Experimental data taken from ChEMBL document CHEMBL3045001, “Synthesis and evaluation of analgesic, anti-inflammatory, and anticancer activities of new pyrazole-3(5)-carboxylic acid derivatives” (Med Chem Res, 2013).

Assays:
Mus musculus [1] = organism: Mus musculus; assay: Acute toxicity against Mus musculus Swiss albino (mouse) assessed as morbidity after 48 hr; type: organism-based; conditions: in vivo
Mus musculus [2] = assay: Anti-inflammatory activity in carrageenan-induced Mus musculus Swiss albino (mouse) paw edema model assessed as paw swelling at 100 mg/kg, sc administered 30 min prior to carrageenan injection measured after 180 min (reference value: 51.0 +/-3.0 x10'-2 mm); type: functional; conditions: route subcutaneous
Mus musculus [3] = organism: Mus musculus; assay: Acute toxicity against Mus musculus Swiss albino (mouse) assessed as mortality after 48 hr; type: organism-based; conditions: in vivo
Mus musculus [4] = assay: Anti-inflammatory activity in carrageenan-induced Mus musculus Swiss albino (mouse) paw edema model assessed as inhibition of paw edema at 100 mg/kg, sc administered 30 min prior to carrageenan injection measured after 270 min; type: functional; conditions: route subcutaneous
Mus musculus [5] = assay: Anti-inflammatory activity in carrageenan-induced Mus musculus Swiss albino (mouse) paw edema model assessed as inhibition of paw edema at 100 mg/kg, sc administered 30 min prior to carrageenan injection measured after 90 min; type: functional; conditions: route subcutaneous
Mus musculus [6] = assay: Anti-inflammatory activity in carrageenan-induced Mus musculus Swiss albino (mouse) paw edema model assessed as inhibition of paw edema at 100 mg/kg, sc administered 30 min prior to carrageenan injection measured after 360 min; type: functional; conditions: route subcutaneous
Mus musculus [7] = assay: Anti-inflammatory activity in carrageenan-induced Mus musculus Swiss albino (mouse) paw edema model assessed as inhibition of paw edema at 100 mg/kg, sc administered 30 min prior to carrageenan injection measured after 180 min; type: functional; conditions: route subcutaneous
Mus musculus [8] = assay: Analgesic activity in Mus musculus Swiss albino (mouse) assessed as inhibition of p-benzoquinone-induced abdominal writhing at 100 mg/kg, sc administered 30 min prior to PBQ injection measured after 5 min for 15 min; type: functional, Abdomen; design: scale not given: the % may be the effect or the level left; conditions: route subcutaneous
Mus musculus [9] = assay: Anti-inflammatory activity in carrageenan-induced Mus musculus Swiss albino (mouse) paw edema model assessed as paw swelling at 100 mg/kg, sc administered 30 min prior to carrageenan injection measured after 90 min (reference value: 38.0 +/-2.0 x10'-2 mm); type: functional; conditions: route subcutaneous
Mus musculus [10] = assay: Anti-inflammatory activity in carrageenan-induced Mus musculus Swiss albino (mouse) paw edema model assessed as paw swelling at 100 mg/kg, sc administered 30 min prior to carrageenan injection measured after 270 min (rvb = 75.0 +/-3.0 x10'-2 mm); type: functional; conditions: route subcutaneous
Mus musculus [11] = assay: Anti-inflammatory activity in carrageenan-induced Mus musculus Swiss albino (mouse) paw edema model assessed as paw swelling at 100 mg/kg, sc administered 30 min prior to carrageenan injection measured after 360 min (reference value: 77.0 +/-3.0 x10'-2 mm); type: functional; conditions: route subcutaneous
MCF7 [12] = assay: Anticancer activity against Homo sapiens (human) MCF7 cells assessed as cell viability at 50 uM after 48 hr by MTT assay (100 +/-5.08%); type: functional; conditions: MCF7, 48 h, read-out: Activity
HL-60 [13] = assay: Anticancer activity against Homo sapiens (human) HL60 cells assessed as cell viability at 50 uM after 48 hr by MTT assay (reference value: 100 +/-8.41%); type: functional; conditions: HL-60, 48 h, read-out: Activity
HL-60 [14] = assay: Anticancer activity against Homo sapiens (human) HL60 cells assessed as cell viability at 50 uM after 24 hr by MTT assay (reference value: 100 +/-3.55%); type: functional; conditions: HL-60, 24 h, read-out: Activity
HeLa [15] = assay: Anticancer activity against Homo sapiens (human) HeLa cells assessed as cell viability at 50 uM after 48 hr by MTT assay (reference value: 100 +/-3.8%); type: functional; conditions: read-out: Activity
HeLa [16] = assay: Anticancer activity against Homo sapiens (human) HeLa cells assessed as cell viability at 50 uM after 24 hr by MTT assay (reference value: 100 +/-4.13%); type: functional; conditions: read-out: Activity
Raji [17] = assay: Anticancer activity against Homo sapiens (human) Raji cells assessed as cell viability at 50 uM after 48 hr by MTT assay (reference value: 100 +/-4.26%); type: functional; conditions: read-out: Activity
MCF7 [18] = assay: Anticancer activity against Homo sapiens (human) MCF7 cells assessed as cell viability at 50 uM after 24 hr by MTT assay (reference value: 100 +/-2.74%); type: functional; conditions: MCF7, 24 h, read-out: Activity
MDA-MB-231 [19] = assay: Anticancer activity against Homo sapiens (human) estrogen-independent MDA-MB-231 cells assessed as cell viability at 50 uM after 24 hr by MTT assay (reference value: 100 +/-7.08%); type: functional; conditions: MDA-MB-231, 24 h, read-out: Activity
Raji [20] = assay: Anticancer activity against Homo sapiens (human) Raji cells assessed as cell viability at 50 uM after 24 hr by MTT assay (reference value: 100 +/-5.02%); type: functional; conditions: read-out: Activity
MDA-MB-231 [21] = assay: Anticancer activity against Homo sapiens (human) estrogen-independent MDA-MB-231 cells assessed as cell viability at 50 uM after 48 hr by MTT assay (reference value: 100 +/-3.71%); type: functional; conditions: MDA-MB-231, 48 h, read-out: Activity

Row | Structure (SMILES) | Activity (Mus musculus [1]) | Activity (Mus musculus [2]) | Activity (Mus musculus [3]) | inhibition in vivo at 100 mg/kg (Mus musculus [4]) | inhibition in vivo at 100 mg/kg (Mus musculus [6]) | inhibition in vivo at 100 mg/kg (Mus musculus [7]) | Activity (Mus musculus [8]) | Activity (Mus musculus [9]) | Activity (Mus musculus [10]) | Activity (Mus musculus [11]) | viability at 50 µM (MCF7 [12]) | viability at 50 µM (HL-60 [13]) | viability at 50 µM (HL-60 [14]) | viability at 50 µM (HeLa [15]) | viability at 50 µM (HeLa [16]) | viability at 50 µM (Raji [17]) | viability at 50 µM (MCF7 [18]) | viability at 50 µM (MDA-MB-231 [19]) | viability at 50 µM (Raji [20]) | viability at 50 µM (MDA-MB-231 [21]) | other results
1 | COc1ccc(CN2CCN(C(=O)c3cc(-c4ccc(C)cc4)nn3Cc3ccccc3)CC2)c(OC)c1OC | Non-toxic | 28 ×10⁻² mm | Non-toxic | 74.4% | 53.3% | 44.7% | 53% | 31 ×10⁻² mm | 19 ×10⁻² mm | 36 ×10⁻² mm | – | – | – | – | – | – | – | – | – | – | inhibition in vivo at 100 mg/kg (Mus musculus [5]): 17.8%
2 | Cc1ccc(-c2cc(C(=O)NCc3cccnc3)n(Cc3ccccc3)n2)cc1 | Non-toxic | 43 ×10⁻² mm | Non-toxic | 24.4% | 25.3% | 16.5% | – | 36 ×10⁻² mm | 57 ×10⁻² mm | 57 ×10⁻² mm | 100% | 41.9% | 31.7% | 82.6% | 74.9% | 93.4% | 105% | 65.1% | 86.4% | 43.1% | inhibition in vivo at 100 mg/kg (Mus musculus [5]): 3.7%
3 | Cc1ccc(-c2cc(C(=O)NNc3ccc4ccccc4n3)n(Cc3ccccc3)n2)cc1 | Non-toxic | 39 ×10⁻² mm | Non-toxic | 44.4% | 42.8% | 24.1% | 48.9% | 29 ×10⁻² mm | 42 ×10⁻² mm | 44 ×10⁻² mm | – | – | – | – | – | – | – | – | – | – | inhibition in vivo at 100 mg/kg (Mus musculus [5]): 23%
4 | Cc1ccc(-c2cc(C(=O)Oc3ccc(C(C)(C)C)cc3)n(Cc3ccccc3)n2)cc1 | Non-toxic | 33 ×10⁻² mm | Non-toxic | 50% | 62% | 35% | 10.9% | 40 ×10⁻² mm | 38 ×10⁻² mm | 29 ×10⁻² mm | 94.9% | 112% | 120% | 81.4% | 83.2% | 103% | 93.2% | 119% | 94.9% | 62.9% | –
5 | Cc1ccc(-c2cc(C(=O)Oc3ccc(C(C)C)cc3)n(Cc3ccccc3)n2)cc1 | Non-toxic | 39 ×10⁻² mm | Non-toxic | 29% | 31.5% | 24% | 33% | 38.3 ×10⁻² mm | 53 ×10⁻² mm | 53 ×10⁻² mm | 90.5% | 126% | 115% | 69.7% | 87.2% | 94.2% | 80.3% | 71.9% | 105% | 50.2% | –
6 | CCCCCCCOc1ccc(OC(=O)c2cc(-c3ccc(C)cc3)nn2Cc2ccccc2)cc1 | Non-toxic | 47 ×10⁻² mm | Non-toxic | 10% | – | 9% | – | 42.5 ×10⁻² mm | 68 ×10⁻² mm | 80 ×10⁻² mm | 97.6% | 108% | 118% | 85.3% | 109% | 84.3% | 100% | 115% | 76.3% | 63.2% | –
7 | Cc1ccc(-c2cc(C(=O)Oc3ccc(Oc4ccc(C(F)(F)F)cc4)cc3)n(Cc3ccccc3)n2)cc1 | Non-toxic | 43 ×10⁻² mm | Non-toxic | 22.2% | 14.1% | 17% | 56.9% | 40 ×10⁻² mm | 58 ×10⁻² mm | 66 ×10⁻² mm | 107% | 86.3% | 114% | 77.4% | 89.1% | 121% | 63.6% | 75.5% | 111% | 50.3% | –
8 | CCOC(=O)C1CCN(C(=O)c2cc(-c3ccc(C)cc3)n(Cc3ccccc3)n2)CC1 | Non-toxic | 44 ×10⁻² mm | Non-toxic | 57.8% | 59.8% | 13.9% | 83.2% | 40 ×10⁻² mm | 32 ×10⁻² mm | 31 ×10⁻² mm | 94.5% | 78.8% | 88.2% | 47.1% | 66.4% | 41.6% | 77.8% | 121% | 56.5% | 71.8% | –
9 | Cc1ccc(-c2cc(C(=O)Oc3ccc(C(C)C)cc3)nn2Cc2ccccc2)cc1 | Non-toxic | 42 ×10⁻² mm | Non-toxic | 50.4% | 47.8% | 18.7% | 45.7% | 27 ×10⁻² mm | 37 ×10⁻² mm | 40 ×10⁻² mm | 82.6% | 83.6% | 120% | 54.6% | 79.6% | 97% | 79.6% | 106% | 90.1% | 66.2% | inhibition in vivo at 100 mg/kg (Mus musculus [5]): 27.4%
10 | Cc1ccc(-c2cc(C(=O)N3CCN(Cc4ccc(C(C)C)cc4)CC3)n(Cc3ccccc3)n2)cc1 | Non-toxic | 49 ×10⁻² mm | Non-toxic | 26.7% | 30.4% | 4.1% | – | 44.2 ×10⁻² mm | 55 ×10⁻² mm | 53 ×10⁻² mm | 66.6% | 104% | 128% | 60.6% | 84.8% | 109% | 94.4% | 74% | 101% | 51% | –
11 | CC(=O)Oc1ccccc1C(=O)O [ASPIRIN] | – | – | – | – | – | – | 68.9% | – | – | – | – | – | – | – | – | – | – | – | – | – | –
